“And” between values parts separate entries of the source, which are not always exact repeats. Equal entries are not always repeated.
Key:
human platelets [1] = test: Platelet aggregation inhibition (Born's method, thrombin-stimulated washed platelets); format: cell-based; details: 0.1 U/mL thrombin, mean +/- SD, at least six experiments in duplicate
Method: (§1) Freshly drawn venous blood from healthy volunteers of the “Centro Trasfusionale, Ospedale San Martino” in Genoa was collected into 130 mM aqueous trisodium citrate anticoagulant solution (9:1). The donors claimed to have not taken drugs known to interfere with platelet function during two weeks prior to blood collection and gave their informed consent. Washed platelets were prepared centrifuging whole blood at 100× g for 20 min. The obtained platelet-rich plasma was then centrifuged at 1100× g for 15 min. Pellet was washed once with pH 5.2 ACD solution (75 mM trisodium citrate, 42 mM citric acid and 136 mM glucose), centrifuged at 1100× g for 15 min and then re-suspended in pH 7.4 Hepes buffer (145 mM NaCl, 5 mM KCl, 1 mM MgSO4, 10 mM glucose, 10 mM HEPES).
Platelet aggregation was performed in a Bio-Data Aggregometer (Bio-Data Corporation, Horsham, PA, USA) according to Born’s method and quantified by the light transmission reached within 6 min at 37 °C. Briefly, washed platelets (3.0 × 10^8/mL) were pre-incubated for 3 min at 37 °C with saline, compound 4 or 5 before the addition of 0.1 U/mL thrombin. The IC50 values were calculated as above detailed.

human platelets [2] = test: ROS production inhibition in thrombin-stimulated washed platelets (DCFH-DA, flow cytometry); format: cell-based; details: for IC50: washed human platelets, 0.1 U/mL thrombin, DCFH-DA, mean +/- SD, at least six experiments in duplicate; for activity towards ROS production in platelets (in words): human platelets, thrombin stimulated
Method: as §1
ROS production was quantified as previously reported by DCFH-DA, a ROS-sensitive probe that yields upon oxidation the fluorescent adduct DCF that is trapped inside the cells. Briefly, washed platelets (1.0 × 10^8/mL), pre-incubated with saline, compounds 4 or 5, for 15 min at 37 °C, were stimulated by 0.1 U/mL thrombin. Incubation was stopped by cooling samples in ice bath and then samples were immediately analyzed in a Merck Millipore Bioscience Guava easyCyte flow cytometer (Merk Millipore, Burlington, MA, USA). The reported IC50 value is the molar concentration of the compound able to obtain 50% inhibition of the […] induced by the agonist and is calculated by the percentage of inhibition that is the inhibition of the […] measured in the presence of the agent compared with that measured in a control sample containing saline, carried out under the same conditions.

human neutrophils = test: Flow cytometric evaluation of ROS production in fMLP-activated neutrophils (DCFH-DA); format: cell-based; details: data not shown
Source text: Heparinized (heparin 10 U/mL Vister, PfizerItalia, Borgo San Michele, Latina, Italy) venous blood was obtained from healthy male volunteers after written informed consent. Neutrophils were isolated by dextran sedimentation (Dextran 70.000 Plander, Fresenius Kabi Italia, Verona, Italy), and subsequent centrifugation on a Ficoll-Hypaque density gradient (Lympholyte-I from Cedarlane Laboratories Ltd. Hornby, ON, Canada), as described. Contaminating erythrocytes were removed by hypotonic lysis. Neutrophils were washed and resuspended in Hanks’balanced salt solution (HBSS; EuroCLone, Wetherby West, Yorkshire, UK) mixed with Dulbecco’s PBS (EuroClone; HBBS:PBS. Final cell suspensions contained 97% or more neutrophils and more than 98% viable cells, as evaluated by a trypan blue test kit (Sigma Aldrich).
Flow cytometric analysis of neutrophil oxidative metabolism was carried out according to literature method. Briefly, neutrophils, were cultured for 1 h with or without 4d and 5d at different concentration. Thereafter, neutrophils were pre-treated with 2′-7′-dichlorofluorescein-diacetate (DCFH-DA; Sigma, Milan, Italy) ([…]), During the incubation time, DCFH-DA entered into the cells, and it was cleaved by intracellular esterases to give non-fluorescence DCFH trapped within the cells. After washing in PBS, the cells were incubated for 15 min at room temperature in the presence or absence of N-formyl-L-methionin-L-leucyl-L-phenylalanine (fMLP; Sigma, Milan, Italy) ([…]) for 30 min at 37 °C. During this period, intracellular ROS oxidized DCFH to give a green fluorescence […]. The reaction was stopped by keeping the samples on ice before being analyzed by flow cytometry (FC500, Beckman Coulter).

| Molecule | IC50 (human platelets [1]; Platelet) [µM] | IC50 (human platelets [2]; Homo sapiens, Platelet) [µM] | IC50 (human platelets [2]) | melting point [°C] | activity towards ROS production in platelets (in words) (human platelets [2]) | IC50 (human platelets [1]) [µM] | activity towards ROS production in neutrophils (in words) (human neutrophils) |
| --- | --- | --- | --- | --- | --- | --- | --- |
| COc1cc(/C=N/NC(=O)c2cnn(CC(O)c3ccccc3)c2N)ccc1OC(F)F (centres unmarked) [4a, (E)-5-Amino-N′-(4-(difluoromethoxy)-3-methoxybenzylidene)-1-(2-hydroxy-2-phenylethyl)-1H-pyrazole-4-carbohydrazide] | 7.6 ± 0.5 | ~10 | 10.1 ± 2.1 µM | 119 to 121 |  |  |  |
| COc1cccc(/C=N/NC(=O)c2cnn(CC(O)c3ccccc3)c2N)c1OC1CCCC1 (centres unmarked) [4b, (E)-5-Amino-N′-(2-(cyclopentyloxy)-3-methoxybenzylidene)-1-(2-hydroxy-2-phenylethyl)-1H-pyrazole-4-carbohydrazide] | 64 ± 2.5 | 20.5 ± 2.5 |  | 180 to 181 |  |  |  |
| CCC(C)Oc1cc(/C=N/NC(=O)c2cnn(CC(O)c3ccccc3)c2N)ccc1OC (centres unmarked) [4c, (E)-5-Amino-N′-(3-(sec-butoxy)-4-methoxybenzylidene)-1-(2-hydroxy-2-phenylethyl)-1H-pyrazole-4-carbohydrazide] | 57.1 ± 1.6 | 16.7 ± 1.1 |  | 190 to 193 |  |  |  |
| Nc1c(C(=O)N/N=C/c2ccc(OC(F)F)c(OC3CCCC3)c2)cnn1CC(O)c1ccccc1 (centres unmarked) [4e, (E)-5-Amino-N′-(3-(cyclopentyloxy)-4-(difluoromethoxy)benzylidene)-1-(2-hydroxy-2-phenylethyl)-1H-pyrazole-4-carbohydrazide] | 29.4 ± 4.4 | 32.8 ± 2.8 |  | 178 to 180 |  |  |  |
| Nc1c(C(=O)N/N=C/c2ccc(OC(F)F)c(Oc3ccccc3)c2)cnn1CC(O)c1ccccc1 (centres unmarked) [4f, (E)-5-Amino-N′-(4-(difluoromethoxy)-3-phenoxybenzylidene)-1-(2-hydroxy-2-phenylethyl)-1H-pyrazole-4-carbohydrazide] | 9.8 ± 1.7 | ~10 | 8.6 ± 2.2 µM | 184 to 186 |  |  |  |
| Nc1c(C(=O)N/N=C/c2ccc(OC(F)F)c(OCc3ccccc3)c2)cnn1CC(O)c1ccccc1 (centres unmarked) [4g, (E)-5-Amino-N′-(3-(benzyloxy)-4-(difluoromethoxy)benzylidene)-1-(2-hydroxy-2-phenylethyl)-1H-pyrazole-4-carbohydrazide] | 11 ± 1.2 | ~10 | 9.5 ± 2.6 µM | 144 to 146 |  |  |  |
| COc1cc(/C=N/NC(=O)c2cnn(CC(O)c3ccccc3)c2N)cc(OC)c1OC (centres unmarked) [4h, (E)-5-Amino-1-(2-hydroxy-2-phenylethyl)-N′-(3,4,5-trimethoxybenzylidene)-1H-pyrazole-4-carbohydrazide] | > 200 | > 200 |  |  | inactive |  |  |
| COc1cccc(/C=N/NC(=O)c2cnn(CC(O)c3ccccc3)c2N)c1Oc1ccccc1 (centres unmarked) [4i, (E)-5-Amino-1-(2-hydroxy-2-phenylethyl)-N′-(3-methoxy-2-phenoxybenzylidene)-1H-pyrazole-4-carbohydrazide] | > 200 | > 200 |  | 207 to 209 | completely inactive |  |  |
| COc1cccc(/C=N/NC(=O)c2cnn(CC(O)c3ccccc3)c2N)c1OCc1ccccc1 (centres unmarked) [4j, (E)-5-Amino-N′-(2-(benzyloxy)-3-methoxybenzylidene)-1-(2-hydroxy-2-phenylethyl)-1H-pyrazole-4-carbohydrazide] | > 200 | > 200 |  | 198 to 200 | completely inactive |  |  |
| COc1ccc(/C=N/NC(=O)c2cnn3c2NC(c2ccccc2)C3)cc1OC (centres unmarked) [5a, (E)-N′-(3,4-Dimethoxybenzylidene)-2-phenyl-2,3-dihydro-1H-imidazo[1,2-b]pyrazole-7-carbohydrazide] | 31.5 ± 5.2 | 37.2 ± 2.5 |  | 206 to 207 |  |  |  |
| COc1cccc(/C=N/NC(=O)c2cnn3c2NC(c2ccccc2)C3)c1OC1CCCC1 (centres unmarked) [5b, (E)-N′-(2-(Cyclopentyloxy)-3-methoxybenzylidene)-2-phenyl-2,3-dihydro-1H-imidazo[1,2-b]pyrazole-7-carbohydrazide] | 59.1 ± 5.5 | 66.7 ± 5.7 |  |  |  |  |  |
| CCC(C)Oc1cc(/C=N/NC(=O)c2cnn3c2NC(c2ccccc2)C3)ccc1OC (centres unmarked) [5c, (E)-N′-(3-(sec-Butoxy)-4-methoxybenzylidene)-2-phenyl-2,3-dihydro-1H-imidazo[1,2-b]pyrazole-7-carbohydrazide] | 70.9 ± 4 | 71.4 ± 6 |  | 130 to 131 |  |  |  |
| O=C(N/N=C/c1ccc(OC(F)F)c(OC2CCCC2)c1)c1cnn2c1NC(c1ccccc1)C2 (centres unmarked) [5e, (E)-N′-(3-(cyclopentyloxy)-4-(difluoromethoxy)benzylidene)-2-phenyl-2,3-dihydro-1H-imidazo[1,2-b]-pyrazole-7-carbohydrazide] | 70.5 ± 8 | 78.8 ± 5.6 |  |  |  |  |  |
| COc1ccc(/C=N/NC(=O)c2cnn3c2NC(c2ccccc2)C3)cc1OC1CCCCC1 (centres unmarked) [5f, (E)-N′-(3-(Cyclohexyloxy)-4-(methoxy)benzylidene)-2-phenyl-2,3-dihydro-1H-imidazo[1,2-b]pyrazole-7-carbohydrazide] | 61.6 ± 6.5 | 59.9 ± 5.7 |  | 119 to 120 |  |  |  |
| O=C(N/N=C/c1ccc2c(c1)OCO2)c1cnn2c1NC(c1ccccc1)C2 (centres unmarked) [5g, (E)-N′-(benzo[d][1,3]dioxol-5-ylmethylene)-2-phenyl-2,3-dihydro-1H-imidazo[1,2-b]pyrazole-7-carbohydrazide] | 67 ± 6.6 | 77.9 ± 7.1 |  |  |  |  |  |
| COc1cc(/C=N/NC(=O)c2cnn3c2NC(c2ccccc2)C3)cc(OC)c1OC (centres unmarked) [5h, (E)-2-Phenyl-N′-(3,4,5-trimethoxybenzylidene)-2,3-dihydro-1H-imidazo[1,2-b]pyrazole-7-carbohydrazide] | > 200 | > 200 |  |  | inactive |  |  |
| COc1cccc(/C=N/NC(=O)c2cnn3c2NC(c2ccccc2)C3)c1Oc1ccccc1 (centres unmarked) [5i, (E)-N′-(2-(Phenoxy)-3-(methoxy)benzylidene)-2-phenyl-2,3-dihydro-1H-imidazo[1,2-b]pyrazole-7-carbo-hydrazide] |  |  | > 200 µM |  | completely inactive | > 200 |  |
| COc1cccc(/C=N/NC(=O)c2cnn3c2NC(c2ccccc2)C3)c1OCc1ccccc1 (centres unmarked) [5j, (E)-N′-(2-(Benzyloxy)-3-(methoxy)benzylidene)-2-phenyl-2,3-dihydro-1H-imidazo[1,2-b]pyrazole-7-carbohydrazide] | > 200 | > 200 |  | 200 to 202 | completely inactive |  |  |
| COc1ccc(/C=N/NC(=O)c2cnn3c2N(C(C)=O)C(c2ccccc2)C3)cc1OC1CCCC1 (centres unmarked) [5k, (E)-1-acetyl-N′-(3-(cyclopentyloxy)-4-methoxybenzylidene)-2-phenyl-2,3-dihydro-1H-imidazo[1,2-b]pyrazole-7-carbohydrazide] | > 200 | > 200 |  | 140 to 141 | completely inactive |  |  |
| NNC(=O)c1cnn2c1NC(c1ccccc1)C2 (centres unmarked) [compound 12, 2-Phenyl-2,3-dihydro-1H-imidazo[1,2-b]pyrazole-7-carbohydrazide] |  |  |  |  | completely inactive |  | completely inactive |
| (E)-5-Amino-N′-(3-(cyclopentyloxy)-4-methoxybenzylidene)-1-(2-hydroxy-2-phenylethyl)-1H-pyrazole-4-carbohydrazide [4k] |  |  | 90 µM and 92.7 µM |  |  | 86.1 ± 7.8 |  |
